One test deals with T1, Metacaspase-2 (Trypanosoma brucei, UniProt Q8T8E7).
T1 sequence (Q8T8E7 whole entry): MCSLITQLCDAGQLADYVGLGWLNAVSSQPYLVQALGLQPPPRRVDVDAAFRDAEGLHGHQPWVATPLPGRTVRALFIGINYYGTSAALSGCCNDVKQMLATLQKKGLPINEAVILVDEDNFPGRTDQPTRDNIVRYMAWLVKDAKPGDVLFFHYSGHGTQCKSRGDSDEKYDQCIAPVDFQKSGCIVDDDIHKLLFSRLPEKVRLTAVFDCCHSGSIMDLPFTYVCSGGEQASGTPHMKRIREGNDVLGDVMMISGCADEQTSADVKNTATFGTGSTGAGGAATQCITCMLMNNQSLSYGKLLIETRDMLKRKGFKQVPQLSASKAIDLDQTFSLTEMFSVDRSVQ
The test can be described thus: Inhibition of Trypanosoma brucei MAC2.

Another test concerns MRC5. The test can be described thus: Cytotoxicity against human MRC5 cells. The test is classed as cell-based.
Another test deals with Plasmodium falciparum. The test can be described thus: Antiparasitic activity against Plasmodium falciparum ring stage and schizont. Format: functional, organism-based.
In test [1] the test system is Trypanosoma brucei brucei. The test can be described thus: Antiparasitic activity against Trypanosoma brucei brucei bloodstream form. Format: functional, organism-based.
In the next test the test system is Leishmania infantum. The test can be described thus: Antiparasitic activity against Leishmania infantum amastigotes. Format: functional, organism-based.
The next test has as its system Trypanosoma cruzi. Description: Antiparasitic activity against Trypanosoma cruzi amastigotes. The test is classed as functional, organism-based.
The target of test [2] is T2, Metacaspase-3 (Trypanosoma brucei) (UniProt Q8T8E6).
T2 sequence (whole entry): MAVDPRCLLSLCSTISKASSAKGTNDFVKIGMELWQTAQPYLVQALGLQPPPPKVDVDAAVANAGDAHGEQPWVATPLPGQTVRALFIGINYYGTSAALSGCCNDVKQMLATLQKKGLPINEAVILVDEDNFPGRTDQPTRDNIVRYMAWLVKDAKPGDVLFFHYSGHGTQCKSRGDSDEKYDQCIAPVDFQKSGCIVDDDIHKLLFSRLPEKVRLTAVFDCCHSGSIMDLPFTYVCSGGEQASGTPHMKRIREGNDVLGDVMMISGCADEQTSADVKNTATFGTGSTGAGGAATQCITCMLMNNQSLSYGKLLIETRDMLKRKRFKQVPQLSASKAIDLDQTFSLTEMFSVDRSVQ
The test can be described thus: Inhibition of Trypanosoma brucei MAC3.

A further test deals with T3, Caspase-3 (Homo sapiens) (UniProt P42574).
T3 sequence (whole entry): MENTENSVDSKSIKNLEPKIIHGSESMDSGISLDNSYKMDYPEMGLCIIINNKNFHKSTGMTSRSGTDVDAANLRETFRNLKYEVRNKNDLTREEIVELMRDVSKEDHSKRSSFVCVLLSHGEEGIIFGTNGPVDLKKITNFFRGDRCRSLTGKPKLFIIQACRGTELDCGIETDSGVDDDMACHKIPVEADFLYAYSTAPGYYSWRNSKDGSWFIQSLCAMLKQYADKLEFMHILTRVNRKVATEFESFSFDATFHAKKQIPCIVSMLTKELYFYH
The test can be described thus: Inhibition of human caspase 3.

Active and inactive are the calls of the source. The calls are words filed in the database; no cut-off is given here.

For orientation: IC50 means the point on the concentration scale where inhibition reaches its midpoint.

For `NC(N)=NCCCC[C@H](NC(=O)OCc1ccccc1)C(=O)c1nc2ccccc2s1`, the 50% inhibitory concentration (IC50) was 4 µM against Metacaspase-2; 19 µM in the test on MRC5; 5.6 µM with Plasmodium falciparum; 11.4 µM in test [1]; 45.4 µM in the test on Leishmania infantum; 5.5 µM with Trypanosoma cruzi.

Turning to `CC(C)C(NC(=O)OCc1ccccc1)C(=O)N[C@@H](CCCNC(=N)N)C(=O)c1nc2ccccc2s1` (some centres not stated), the IC50 was 1.1 µM on Metacaspase-2; 32.6 µM in the test with MRC5; 3.3 µM in the test with Plasmodium falciparum; 11.2 µM in test [1]; more than 64 µM in the test with Leishmania infantum; 7.3 µM with Trypanosoma cruzi.

Take `N=C(N)NCCC[C@H](NC(=O)OCc1ccccc1)C(=O)c1ccccn1`: the IC50 is 62 µM on Metacaspase-2; more than 64 µM in the test on MRC5; more than 64 µM in the test on Plasmodium falciparum; more than 64 µM in test [1]; more than 64 µM in the test with Leishmania infantum; more than 64 µM with Trypanosoma cruzi. Further, the inhibition result in test [2] was “Active”.

For the molecule `CC(C)CC(NC(=O)OCc1ccccc1)C(=O)N[C@@H](CCCNC(=N)N)C(=O)c1nc2ccccc2s1` (some centres not stated), the IC50 against Metacaspase-2 worked out at 1.4 µM; with MRC5, 29 µM; with Plasmodium falciparum, 2.6 µM; in test [1] it was 5.7 µM; in the test with Leishmania infantum, 36.8 µM; in the test with Trypanosoma cruzi, 5.6 µM.

Consider `N#CCN(CCCCN1CCCC1)C(=O)OCc1ccccc1`, for which the IC50 against Metacaspase-2 is more than 100 µM; in the test with MRC5, more than 64 µM; in the test on Plasmodium falciparum, 20.5 µM; in test [1] it was 52.1 µM; in the test on Leishmania infantum it was more than 64 µM; in the test with Trypanosoma cruzi it was more than 64 µM.

For the molecule `Cn1c(C(=O)[C@H](CCCNC(=N)N)NC(=O)OCc2ccccc2)nc2ccccc21`, the 50% inhibitory concentration (IC50) against Metacaspase-2 was 38.4 µM; with MRC5, more than 64 µM; in the test on Plasmodium falciparum, 7.1 µM; in test [1] it was 32.5 µM; in the test on Leishmania infantum it was more than 64 µM; in the test with Trypanosoma cruzi it was 28.3 µM. Moreover, the inhibition result on Caspase-3 (Homo sapiens) was “inactive”. Moreover, the inhibition entry in test [2] is “Active”.

As to `N#CCN(CCCCN1CCCCC1)C(=O)OCc1ccccc1`, the IC50 against Metacaspase-2 is more than 100 µM; with MRC5, more than 64 µM; in the test with Plasmodium falciparum, 6.9 µM; in test [1], more than 64 µM; in the test on Leishmania infantum, more than 64 µM; in the test with Trypanosoma cruzi, more than 64 µM.

For `N#CCN(CCCCn1ccnc1)C(=O)OCc1ccccc1`, the IC50 against Metacaspase-2 is more than 100 µM; with MRC5 it was more than 64 µM; in the test with Plasmodium falciparum, 17.2 µM; in test [1], more than 64 µM; with Leishmania infantum, more than 64 µM; in the test with Trypanosoma cruzi it was 35.7 µM.

With `N#C[C@H](CCCNC(=N)N)NC(=O)OCc1ccccc1`, the 50% inhibitory concentration (IC50) against Metacaspase-2 was 1.9 µM; in the test with MRC5 it was more than 64 µM; in the test with Plasmodium falciparum it was 50.2 µM; in test [1] it was more than 64 µM; in the test with Leishmania infantum it was more than 64 µM; in the test with Trypanosoma cruzi, more than 64 µM. In addition, the inhibition result at Caspase-3 (Homo sapiens) was “inactive”. Further, the inhibition entry in test [2] was “Active”.

Take `N#CCN(CCCCN1CCN(c2ccc(F)cc2)CC1)C(=O)OCc1ccccc1`: the IC50 at Metacaspase-2 is more than 100 µM; in the test on MRC5, more than 64 µM; with Plasmodium falciparum it was more than 64 µM; in test [1], 22.6 µM; with Leishmania infantum it was more than 64 µM; in the test with Trypanosoma cruzi, 7 µM.

Turning to `N#CCN(C(=O)OCc1ccccc1)C1CCNCC1`, the IC50 is more than 100 µM against Metacaspase-2; more than 64 µM in the test on MRC5; 28 µM in the test on Plasmodium falciparum; 32.5 µM in test [1]; more than 64 µM with Leishmania infantum; 34.6 µM in the test on Trypanosoma cruzi.

As for `NCCCC[C@H](NC(=O)OCc1ccccc1)C(=O)c1nc2ccccc2s1`, the IC50 was determined as 1.6 µM on Metacaspase-2; 20 µM in the test on MRC5; 3 µM in the test on Plasmodium falciparum; 10.6 µM in test [1]; 22.8 µM with Leishmania infantum; 10.8 µM in the test with Trypanosoma cruzi.

On to `N=C(N)NCCC[C@@H](/C=C/S(=O)(=O)c1ccccc1)NC(=O)OCc1ccccc1`, for which the IC50 against Metacaspase-2 is 3.9 µM; in the test on MRC5 it was more than 64 µM; with Plasmodium falciparum, 3.4 µM; in test [1] it was 45.3 µM; with Leishmania infantum, more than 64 µM; in the test with Trypanosoma cruzi, 19 µM.

On to `N#C[C@H](Cc1ccc(N)cc1)NC(=O)OCc1ccccc1`, for which the IC50 at Metacaspase-2 is more than 100 µM; in the test with MRC5, more than 64 µM; in the test on Plasmodium falciparum, 16.6 µM; in test [1], 30.3 µM; in the test on Leishmania infantum it was more than 64 µM; in the test on Trypanosoma cruzi, 28.6 µM.

With `N=C(N)NCCC[C@H](NC(=O)OCc1ccccc1)C(=O)c1nc2ccccc2s1`, the IC50 was 0.6 µM on Metacaspase-2; more than 64 µM with MRC5; 8 µM in the test on Plasmodium falciparum; 32.9 µM in test [1]; more than 64 µM with Leishmania infantum; 20.9 µM in the test with Trypanosoma cruzi. Further, the inhibition entry on Caspase-3 (Homo sapiens) was “inactive”. The inhibition result in test [2] was “Active”.

As to `N#C[C@H](Cc1ccc(NC(=N)N)cc1)NC(=O)OCc1ccccc1`, the IC50 against Metacaspase-2 is more than 100 µM; in the test on MRC5, more than 64 µM; with Plasmodium falciparum it was 25.4 µM; in test [1], more than 64 µM; with Leishmania infantum, more than 64 µM; in the test on Trypanosoma cruzi, 27.2 µM.

With `N#CCN(CCCCN1CCN(C(c2ccc(F)cc2)c2ccc(F)cc2)CC1)C(=O)OCc1ccccc1`, the 50% inhibitory concentration (IC50) is more than 100 µM at Metacaspase-2; 11.3 µM in the test with MRC5; 7.6 µM in the test on Plasmodium falciparum; 2.1 µM in test [1]; 5.9 µM with Leishmania infantum; 2.6 µM in the test with Trypanosoma cruzi.

With `N#CCN(CCCCO)C(=O)OCc1ccccc1`, the IC50 was more than 100 µM at Metacaspase-2; more than 64 µM in the test with MRC5; more than 64 µM in the test with Plasmodium falciparum; more than 64 µM in test [1]; more than 64 µM in the test with Leishmania infantum; more than 64 µM with Trypanosoma cruzi.

With `N=C(N)NCCC[C@H](NC(=O)OCc1ccccc1)C(=O)c1nccs1`, the IC50 on Metacaspase-2 is 2.2 µM; with MRC5, more than 64 µM; with Plasmodium falciparum it was 24.7 µM; in test [1] it was more than 64 µM; with Leishmania infantum, more than 64 µM; in the test with Trypanosoma cruzi it was 38.7 µM. Also, the inhibition entry in test [2] is “Active”.

The values above are taken from ChEMBL document CHEMBL1155398, “Design and evaluation of Trypanosoma brucei metacaspase inhibitors” (Bioorg Med Chem Lett, 2010).
